In ChEMBL document CHEMBL1201861, “Genomics of Drug Sensitity in Cancer screening data, Wellcome Trust Sanger Institute”:

How the values were obtained:
Assay in all cases: cells
SK-UT-1 = format: functional, cell-based, Homo sapiens; details: Homo sapiens, SK-UT-1;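 note: growth inhibition of SK-UT-1 cells, measured by a cell viability assay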
Description: SANGER: Inhibition of human SK-UT-1 cell growth in a cell viability assay.

TE-1 = format: functional, cell-based, Homo sapiens; details: Homo sapiens, TE-1
Description: SANGER: Inhibition of human TE-1 cell growth in a cell viability assay.

MC116 = format: functional, cell-based, Homo sapiens; details: Homo sapiens, MC116;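 note: growth inhibition of MC116 cells, read out with a cell viability assay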
Description: SANGER: Inhibition of human MC116 cell growth in a cell viability assay.

CCRF-CEM = format: functional, cell-based, Homo sapiens; details: Homo sapiens, CCRF-CEM;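 note: inhibition of CCRF-CEM cell growth, measured by a cell viability assay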
Description: SANGER: Inhibition of human CCRF-CEM cell growth in a cell viability assay.

EW-3 = format: functional, cell-based, Homo sapiens; details: Homo sapiens, EW-3;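 note: cell viability assay read-out, IC50 reflects inhibition of growth of the EW-3 cells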
Description: SANGER: Inhibition of human EW-3 cell growth in a cell viability assay.

CP66-MEL = format: functional, cell-based, Homo sapiens; details: Homo sapiens, CP66-MEL;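 note: growth inhibition of CP66-MEL cells determined in a cell viability assay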
Description: SANGER: Inhibition of human CP66-MEL cell growth in a cell viability assay.

GR-ST = format: functional, cell-based, Homo sapiens; details: Homo sapiens, GR-ST
Description: SANGER: Inhibition of human GR-ST cell growth in a cell viability assay.

NCI-N87 = format: functional, cell-based, Homo sapiens; details: Homo sapiens, NCI-N87;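 note: growth inhibition of human NCI-N87 cells, read out with a cell viability assay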
Description: SANGER: Inhibition of human NCI-N87 cell growth in a cell viability assay.

HEL = format: functional, cell-based, Homo sapiens; details: Homo sapiens, HEL;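 note: growth inhibition of HEL cells, read out with a cell viability assay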
Description: SANGER: Inhibition of human HEL cell growth in a cell viability assay.

TE-12 = format: functional, cell-based, Homo sapiens; details: Homo sapiens, TE-12;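 note: growth inhibition of TE-12 cells, read out by a cell viability assay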
Description: SANGER: Inhibition of human TE-12 cell growth in a cell viability assay.

A388 = format: functional, cell-based, Homo sapiens; details: Homo sapiens, A388;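 note: growth inhibition of human A388 cells, read out with a cell viability assay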
Description: SANGER: Inhibition of human A388 cell growth in a cell viability assay.

COLO-668 = format: functional, cell-based, Homo sapiens; details: Homo sapiens, COLO-668
Description: SANGER: Inhibition of human COLO-668 cell growth in a cell viability assay.

ES8 = format: functional, cell-based, Homo sapiens; details: Homo sapiens, ES8;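 note: growth inhibition of human ES8 cells, read out with a cell viability assay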
Description: SANGER: Inhibition of human ES8 cell growth in a cell viability assay.

LNCaP-Clone-FGC = format: functional, cell-based, Homo sapiens; details: Homo sapiens, LNCaP-Clone-FGC
Description: SANGER: Inhibition of human LNCaP-Clone-FGC cell growth in a cell viability assay.

SH-4 = format: functional, cell-based, Homo sapiens; details: Homo sapiens, SH-4;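 note: growth inhibition of SH-4 cells, read out with a cell viability assay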
Description: SANGER: Inhibition of human SH-4 cell growth in a cell viability assay.

LU-134-A = format: functional, cell-based, Homo sapiens; details: Homo sapiens, LU-134-A
Description: SANGER: Inhibition of human LU-134-A cell growth in a cell viability assay.

NKM-1 = format: functional, cell-based, Homo sapiens; details: Homo sapiens, NKM-1;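 note: growth inhibition of NKM-1 cells, read out with a cell viability assay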
Description: SANGER: Inhibition of human NKM-1 cell growth in a cell viability assay.

HCC2218 = format: functional, cell-based, Homo sapiens; details: Homo sapiens, HCC2218;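 note: cell viability assay read-out, with IC50 given as the concentration that inhibits growth of the cell line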
Description: SANGER: Inhibition of human HCC2218 cell growth in a cell viability assay.

NCI-H23 = format: functional, cell-based, Homo sapiens; details: Homo sapiens, NCI-H23;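 note: cell viability assay measuring growth inhibition of NCI-H23 cells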
Description: SANGER: Inhibition of human NCI-H23 cell growth in a cell viability assay.

DSH1 = format: functional, cell-based, Homo sapiens; details: Homo sapiens, DSH1;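 note: growth inhibition of human DSH1 cells, measured with a cell viability readout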
Description: SANGER: Inhibition of human DSH1 cell growth in a cell viability assay.

SW 954 = format: functional, cell-based, Homo sapiens; details: Homo sapiens, SW 954;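 note: growth inhibition of SW954 human cancer cells, read out as cell viability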
Description: SANGER: Inhibition of human SW954 cell growth in a cell viability assay.

KARPAS-45 = format: functional, cell-based, Homo sapiens; details: Homo sapiens, KARPAS-45;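 note: inhibition of cell line growth, read out through a viability assay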
Description: SANGER: Inhibition of human KARPAS-45 cell growth in a cell viability assay.

BE-13 = format: functional, cell-based, Homo sapiens; details: Homo sapiens, BE-13;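 note: growth inhibition of human BE-13 cells, measured with a cell viability assay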
Description: SANGER: Inhibition of human BE-13 cell growth in a cell viability assay.

U-87 MG = format: functional, cell-based, Homo sapiens, U-87MG ATCC; details: Homo sapiens, U-87 MG;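 note: growth inhibition of the cells measured with a viability assay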
Description: SANGER: Inhibition of human U-87-MG cell growth in a cell viability assay.

LC-2-ad = format: functional, cell-based, Homo sapiens; details: Homo sapiens, LC-2-ad;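 note: growth inhibition of human LC-2-ad cells, read out with a cell viability assay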
Description: SANGER: Inhibition of human LC-2-ad cell growth in a cell viability assay.

A498 = format: functional, cell-based, Homo sapiens; details: Homo sapiens, A498;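 note: growth inhibition of human A498 cells, read out with a cell viability assay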
Description: SANGER: Inhibition of human A498 cell growth in a cell viability assay.

SK-MEL-2 = format: functional, cell-based, Homo sapiens; details: Homo sapiens, SK-MEL-2;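 note: growth inhibition of human SK-MEL-2 cells measured with a cell viability assay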
Description: SANGER: Inhibition of human SK-MEL-2 cell growth in a cell viability assay.

IA-LM = format: functional, cell-based, Homo sapiens; details: Homo sapiens, IA-LM;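 note: cell viability assay measuring growth inhibition of human IA-LM cells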
Description: SANGER: Inhibition of human IA-LM cell growth in a cell viability assay.

NCI-H526 = format: functional, cell-based, Homo sapiens; details: Homo sapiens, NCI-H526;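 note: growth inhibition of the human NCI-H526 cell line, measured by a cell viability assay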
Description: SANGER: Inhibition of human NCI-H526 cell growth in a cell viability assay.

NOMO-1 = format: functional, cell-based, Homo sapiens; details: Homo sapiens, NOMO-1;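 note: growth inhibition of human NOMO-1 cells measured by a cell viability assay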
Description: SANGER: Inhibition of human NOMO-1 cell growth in a cell viability assay.

ES3 = format: functional, cell-based, Homo sapiens; details: Homo sapiens, ES3;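 note: growth inhibition of ES3 cells, read out with a cell viability assay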
Description: SANGER: Inhibition of human ES3 cell growth in a cell viability assay.

SK-N-FI = format: functional, cell-based, Homo sapiens; details: Homo sapiens, SK-N-FI;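 note: cell viability assay measuring growth inhibition of human SK-N-FI cells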
Description: SANGER: Inhibition of human SK-N-FI cell growth in a cell viability assay.

IST-MEL1 = format: functional, cell-based, Homo sapiens; details: Homo sapiens, IST-MEL1;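 note: growth inhibition of the cell line, read out with a cell viability assay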
Description: SANGER: Inhibition of human IST-MEL1 cell growth in a cell viability assay.

RH-1 = format: functional, cell-based, Homo sapiens; details: Homo sapiens, RH-1;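 note: growth inhibition of human RH-1 cells, read out with a cell viability assay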
Description: SANGER: Inhibition of human RH-1 cell growth in a cell viability assay.

HCE-T = format: functional, cell-based, Homo sapiens; details: Homo sapiens, HCE-T;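 note: cell viability assay read-out, reporting inhibition of HCE-T cell growth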
Description: SANGER: Inhibition of human HCE-T cell growth in a cell viability assay.

MEG-01 = format: functional, cell-based, Homo sapiens; details: Homo sapiens, MEG-01;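 note: growth inhibition of MEG-01 cells, read out by a cell viability assay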
Description: SANGER: Inhibition of human MEG-01 cell growth in a cell viability assay.

KM12 = format: functional, cell-based, Homo sapiens; details: Homo sapiens, KM12;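 note: KM12 cell growth inhibition, read out with a cell viability assay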
Description: SANGER: Inhibition of human KM12 cell growth in a cell viability assay.

GB-1 = format: functional, cell-based, Homo sapiens; details: Homo sapiens, GB-1;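 note: growth of GB-1 cells judged by a viability assay, IC50 marks the concentration inhibiting growth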
Description: SANGER: Inhibition of human GB-1 cell growth in a cell viability assay.

ACN = format: functional, cell-based, Homo sapiens; details: Homo sapiens, ACN;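 note: growth inhibition of the human ACN cell line, read out via cell viability testing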
Description: SANGER: Inhibition of human ACN cell growth in a cell viability assay.

NCI-H747 = format: functional, cell-based, Homo sapiens; details: Homo sapiens, NCI-H747;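 note: growth inhibition of human NCI-H747 cells, read out by a cell viability assay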
Description: SANGER: Inhibition of human NCI-H747 cell growth in a cell viability assay.

U-266 = format: functional, cell-based, Homo sapiens; details: Homo sapiens, U-266
Description: SANGER: Inhibition of human U-266 cell growth in a cell viability assay.

SHP77 = format: functional, cell-based, Homo sapiens, SHP-77; details: Homo sapiens, SHP77;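 note: growth inhibition of human SHP-77 cells measured by a cell viability assay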
Description: SANGER: Inhibition of human SHP-77 cell growth in a cell viability assay.

D283 Med = format: functional, cell-based, Homo sapiens; details: Homo sapiens, D283 Med
Description: SANGER: Inhibition of human D-283MED cell growth in a cell viability assay.

EW-11 = format: functional, cell-based, Homo sapiens; details: Homo sapiens, EW-11;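 note: growth inhibition of human EW-11 cells, measured with a cell viability assay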
Description: SANGER: Inhibition of human EW-11 cell growth in a cell viability assay.

A4-Fuk = format: functional, cell-based, Homo sapiens; details: Homo sapiens, A4-Fuk;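 note: growth inhibition of A4-Fuk cells, read out by a cell viability assay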
Description: SANGER: Inhibition of human A4-Fuk cell growth in a cell viability assay.

SK-N-DZ = format: functional, cell-based, Homo sapiens; details: Homo sapiens, SK-N-DZ;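 note: growth inhibition of the cancer cell line, read out through a viability assay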
Description: SANGER: Inhibition of human SK-N-DZ cell growth in a cell viability assay.

KNS-81-FD = format: functional, cell-based, Homo sapiens; details: Homo sapiens, KNS-81-FD;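 note: growth inhibition of KNS-81-FD cells, read out with a cell viability assay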
Description: SANGER: Inhibition of human KNS-81-FD cell growth in a cell viability assay.

JVM-3 = format: functional, cell-based, Homo sapiens; details: Homo sapiens, JVM-3;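 note: growth inhibition of human JVM-3 cells, read out with a cell viability assay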
Description: SANGER: Inhibition of human JVM-3 cell growth in a cell viability assay.

EW-24 = format: functional, cell-based, Homo sapiens; details: Homo sapiens, EW-24;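 note: human EW-24 cancer cell line, growth inhibition read out via a cell viability assay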
Description: SANGER: Inhibition of human EW-24 cell growth in a cell viability assay.

CC(C)CCN1c2nc(Nc3cc(F)c(O)c(F)c3)ncc2N(C)C(=O)C1C (stereo unspecified)
IC50 (SK-UT-1): > 5 µM | IC50 (TE-1): > 5 µM | IC50 (MC116): > 5 µM | IC50 (CCRF-CEM): > 5 µM | IC50 (EW-3): 0.0358 µM | IC50 (CP66-MEL): > 5 µM | IC50 (GR-ST): > 5 µM | IC50 (NCI-N87): > 5 µM | IC50 (HEL): 2.7 µM | IC50 (TE-12): > 5 µM | IC50 (A388): > 5 µM | IC50 (COLO-668): > 5 µM | IC50 (ES8): 1.88 µM | IC50 (LNCaP-Clone-FGC): 3.7 µM | IC50 (SH-4): > 5 µM | IC50 (LU-134-A): 3.95 µM | IC50 (NKM-1): > 5 µM | IC50 (HCC2218): > 5 µM | IC50 (NCI-H23): > 5 µM | IC50 (DSH1): > 5 µM | IC50 (SW 954): 2.86 µM | IC50 (KARPAS-45): 0.165 µM | IC50 (BE-13): 1.59 µM | IC50 (U-87 MG): > 5 µM | IC50 (LC-2-ad): > 5 µM | IC50 (A498): > 5 µM | IC50 (SK-MEL-2): > 5 µM | IC50 (IA-LM): > 5 µM | IC50 (NCI-H526): > 5 µM | IC50 (NOMO-1): > 5 µM | IC50 (ES3): > 5 µM | IC50 (SK-N-FI): > 5 µM | IC50 (IST-MEL1): > 5 µM | IC50 (RH-1): > 5 µM | IC50 (HCE-T): > 5 µM | IC50 (MEG-01): > 5 µM | IC50 (KM12): 3.12 µM | IC50 (GB-1): > 5 µM | IC50 (ACN): 2.67 µM | IC50 (NCI-H747): > 5 µM | IC50 (U-266): 4.61 µM | IC50 (SHP77): > 5 µM | IC50 (D283 Med): 2.24 µM | IC50 (EW-11): 3.41 µM | IC50 (A4-Fuk): > 5 µM | IC50 (SK-N-DZ): > 5 µM | IC50 (KNS-81-FD): > 5 µM | IC50 (JVM-3): 3.07 µM

C=C(c1ccc(C(=O)O)cc1)c1cc2c(cc1C)C(C)(C)CCC2(C)C [BEXAROTENE]
IC50 (SK-UT-1): > 8 µM | IC50 (TE-1): > 8 µM | IC50 (MC116): > 8 µM | IC50 (CCRF-CEM): > 8 µM | IC50 (EW-3): > 8 µM | IC50 (CP66-MEL): > 8 µM | IC50 (GR-ST): > 8 µM | IC50 (NCI-N87): > 8 µM | IC50 (HEL): > 8 µM | IC50 (TE-12): > 8 µM | IC50 (A388): > 8 µM | IC50 (COLO-668): > 8 µM | IC50 (ES8): > 8 µM | IC50 (LNCaP-Clone-FGC): > 8 µM | IC50 (SH-4): 5.31 µM | IC50 (LU-134-A): > 8 µM | IC50 (NKM-1): > 8 µM | IC50 (HCC2218): > 8 µM | IC50 (NCI-H23): > 8 µM | IC50 (DSH1): > 8 µM | IC50 (SW 954): > 8 µM | IC50 (BE-13): > 8 µM | IC50 (U-87 MG): > 8 µM | IC50 (LC-2-ad): > 8 µM | IC50 (A498): > 8 µM | IC50 (SK-MEL-2): > 8 µM | IC50 (IA-LM): 7.36 µM | IC50 (NCI-H526): > 8 µM | IC50 (EW-24): > 8 µM | IC50 (NOMO-1): > 8 µM | IC50 (ES3): > 8 µM | IC50 (SK-N-FI): > 8 µM | IC50 (IST-MEL1): > 8 µM | IC50 (RH-1): > 8 µM | IC50 (HCE-T): > 8 µM | IC50 (MEG-01): > 8 µM | IC50 (KM12): > 8 µM | IC50 (GB-1): > 8 µM | IC50 (ACN): > 8 µM | IC50 (NCI-H747): > 8 µM | IC50 (U-266): > 8 µM | IC50 (SHP77): > 8 µM | IC50 (D283 Med): > 8 µM | IC50 (EW-11): > 8 µM | IC50 (A4-Fuk): > 8 µM | IC50 (SK-N-DZ): > 8 µM | IC50 (KNS-81-FD): > 8 µM | IC50 (JVM-3): > 8 µM
